From patent publication US9708330B2, “2,3-dihydroimidazol[1,2-C]pyrimidin-5(1-H)-one based ipoprotein-associated phospholipase A2 (Lp-PLA2) inhibitors” (GlaxoSmithKline Intellectual Property Development Limited, priority 2013, dated 2017) come the findings set out here.

SMILES strings stand for the structures.

In one experiment the test system is rat EAE model. The experiment can be described thus: Rat experimental autoimmune encephalomyelitis (EAE) model, preventive treatment. In kind it is in vivo. The protocol: A further study was carried out to study the impact of Lp-PLA2 inhibitors on modulating M1/M2 imbalance. In this study, rats were induced to develop experimental autoimmune encephalomyelitis (EAE) by immunization with myelin basic protein (MBP) antigen and treated with a known Lp-PLA2 inhibitor: 5-((9-Methoxy-4-oxo-6,7-dihydro-4H-pyrimido[6,1-a]isoquinolin-2-yl)oxy)-2-(3-(trifluoromethyl)phenoxy)benzonitrile (See PCT application no. PCT/CN2011/001597). In this preventive treatment model, the compound was administered at day 0 (day of immunization) and continued to administer until day 22. The study lasted for 25 days. Rats were subsequently monitored for symptoms of EAE. Rats were immunized with MBP to develop EAE and symptoms were monitored daily. Plasma Lp-PLA2 activity, OxLDL, and LysoPC concentration were determined at different time points through the course of EAE.

Experiment [1] relates to splenic macrophages and CNS infiltrating macrophages. The experiment can be described thus: Ex vivo analysis of M1 and M2 markers in macrophages of EAE rats by realtime PCR. The arrangement: species or system rat. The conditions noted are these: macrophages of compound treated EAE rats, day 13 post MBP-immunization. As for the experimental part:
Ex vivo analysis of proinflammatory (M1) and anti-inflammatory (M2) markers in control and compound treated EAE rats. Splenic macrophages were harvested at day 13 post MBP-immunization and assayed for expression of a variety of markers by realtime PCR. CNS infiltrating cells were harvested and macrophages were analyzed for expression of M1 and M2 markers by realtime PCR.

The target of experiment [2] is T1, recombinant human Lp-PLA2 (Homo sapiens, UniProt Q13093).
T1 sequence (Q13093 22-441): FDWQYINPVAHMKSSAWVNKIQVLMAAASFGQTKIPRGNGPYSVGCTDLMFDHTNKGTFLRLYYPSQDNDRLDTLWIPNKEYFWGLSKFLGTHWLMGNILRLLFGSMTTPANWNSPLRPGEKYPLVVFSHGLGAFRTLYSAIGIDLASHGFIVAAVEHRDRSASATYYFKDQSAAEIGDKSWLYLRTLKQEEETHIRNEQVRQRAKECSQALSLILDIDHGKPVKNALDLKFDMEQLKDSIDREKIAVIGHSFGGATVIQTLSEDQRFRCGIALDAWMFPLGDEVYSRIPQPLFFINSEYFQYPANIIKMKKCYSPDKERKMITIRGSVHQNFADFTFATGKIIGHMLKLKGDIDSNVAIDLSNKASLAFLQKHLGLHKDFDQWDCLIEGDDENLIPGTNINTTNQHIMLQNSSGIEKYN
The experiment can be described thus: Recombinant human Lp-PLA2 assay (rhLp-PLA2), PED6 assay. In kind it is biochemical. The conditions noted are these: Examples 1-137, read-out: rhLp-PLA2 (pIC50) (converted). An excerpt: N-((6-(2,4-dinitrophenyl)amino)-hexanoyl)-2-(4,4-difluoro-5,7-dimethyl -4-bora-3a,4a-diaza-s-indacene-3-pentanoyl)-1-hexadecanoyl-sn-glycero-3-phosphoethanolamine, triethylammonium salt (PED6) is a commercially available fluorescently-labeled phospholipid, which is commercially available from Invitrogene and Molecular Probes. There is a quenching para-nitro phenyl (PNP) group in the sn3 position and a Bodipy fluorescein (FL) group in the sn2 position. Upon cleavage with Lp-PLA2, the Bodipy FL group is liberated and then may result in an increase in fluorescence. Inhibitors of Lp-PLA2 therefore prevent this cleavage and no fluorescent increase is observed.
The PED6 assay was run as an unquenched 10 μL assay. The source plate containing the compounds to be tested was prepared by making 1:3 (by volume) serial dilution of the compounds within DMSO on 384-well microplate. Then, 0.01 μL of the compounds on compound source plate were transferred into 384 well Greiner 784076 (black) plates using ECHO liquid dispenser. […] The plates were read for fluorescence intensity at ex: 480/em: 540 using ViewLux microplate imager for Envision spectrofluroimeters pIC50 data, curve and QC analysis was conducted by using XL fit module in Excel.

Experiment [3] concerns the target T2, Lp-PLA2 in human plasma (Homo sapiens, UniProt Q13093).
T2 construct: from tissue; host or cells: pooled human plasma
T2 sequence (Q13093 22-441): T1 sequence (Q13093 22-441)
As to the kind of experiment: Lp-PLA2 human plasma assay, Thio-PAF assay (3a). The experiment is classed as biochemical. To be noted: pooled human plasma, Examples 1-137, read-out: pIC50 in the Lp-PLA2 human plasma assay (converted). An excerpt:
The human plasma assay utilizes a thioester analog of PAF (phosphatidylcholine), where hydrolysis yields to the formation of a phospholipid containing a free thiol group. The amount of thiol is quantitated continuously by reacting with CPM (7-diethylamino-3-(4′-maleimidylphenyl)-4-methylcoumarin), a maleimide which increases in fluoresence after Michael addition of thiols. This assay may detect the activity of Lp-PLA2 in human plasma, as determined by specific inhibition by Lp-PLA2 inhibitors.
The thio-PAF assay was run as a quenched 15 μL assay. Compounds source plate was prepared by making 1:3 (by volume) serial dilution of the compounds into pure DMSO on 384-well microplate. 0.01 μL of compounds on compound source plate were transferred to 384 well Greiner 784076 (black) low-volume plates by ECHO liquid dispenser. 8 μL pooled human plasma, which was previously aliquoted and frozen, was added. Plates were centrifuged for 10 sec at 500 rpm. After 30 minutes preincubation, 2 μL of substrate solution comprising 2.5 mM 2-thio-PAF [from ethanol stock], 32 μM CPM [from a DMSO stock] and 3.2 mM NEM (N-ethylmaleimide) [made fresh daily in DMSO] in assay buffer of 50 mM HEPES, pH 7.4, 150 mM NaCl, 1 mM CHAPS was added to 384 well Greiner 784076 (black) low-volume plates by BRAVO liquid handling station. […] Plates were read at ex: 380 /em: 485 using Envision microplate reader. […]

Experiment [4] deals with T1, recombinant human Lp-PLA2. The experiment can be described thus: Recombinant human Lp-PLA2 assay, hrThioPAF assay. To be noted: Example 138, read-out: rhLp-PLA2 (pIC50) (converted). The experiment is classed as biochemical. An excerpt: 1-O-hexadecyl-2-deoxy-2-thio-S-acetyl-sn-glyceryl-3-phosphorylcholine (2-thio-PAF) is a substrate for PAF-hydrolases (PAF-AH) commercially available from Cayman Chemical. Upon cleavage with PAF-AH, the free thiol is released at the sn-2 position and can then react with 7-diethylamino-3-(4′-maleimidylphenyl)-4-methylcoumarin (CPM) a thiol-reactive coumarin. This reaction (Michael addition) results in an increase in fluorescence. Inhibitors of Lp-PLA2 therefore prevent this cleavage and no fluorescent increase is observed.
The Thio-PAF assay was run as an unquenched 20 μL assay. The source plate containing the compounds to be tested was prepared by making 1:3 (by volume) serial dilution of the compounds within DMSO on 384-well microplate. Then, 5 μL of the compounds on compound source plate were transferred into 384 well Greiner 784076 (black) plates using STAR+ (Hamilton) liquid dispenser. 10 μL of recombinant human Lp-PLA2 enzyme (20 pM rhLp-PLA2 in assay buffer of 50 mM HEPES, pH 7.4, 150 mM NaCl, 1 mM CHAPS) was added to each well of the plate. […] The plates were read for fluorescence intensity at ex: 380 nm/em: 485 nm using Envision plate reader (Perkin Elmer). […]

The target in experiment [5] is T2, Lp-PLA2 in human plasma. As to the kind of experiment: Lp-PLA2 human plasma assay, alternative Thio-PAF assay (3b). The experiment is classed as biochemical. The conditions noted are these: pooled human plasma, Example 138, read-out: pIC50 in the Lp-PLA2 human plasma assay (converted). As for the experimental part: The human plasma assay utilizes the same thioester analog of PAF as described in (1b) “hr ThioPAF” assay. This assay may detect the activity of Lp-PLA2 in human plasma, as determined by specific inhibition by Lp-PLA2 inhibitors.
The thio-PAF assay was run as a quenched 20 μL assay. Compounds source plate was prepared by making 1:3 (by volume) serial dilution of the compounds into pure DMSO on 96-well microplate. 5 μL of compounds on compound source plate were transferred to 96-well Corning 3686 (black) low-volume plates by STAR+ (Hamilton) liquid dispenser. 10 μL pooled human plasma, which was previously aliquoted and frozen, was added. Plates were centrifuged for 30 sec at 1000 rpm. After 15 minutes preincubation at room temperature, 5 μL of substrate solution comprising 2 mM 2-thio-PAF [from ethanol stock], 52 μM CPM [from a DMSO stock] and 2.5 mM NEM (N-ethylmaleimide) [made fresh daily in DMSO] in assay buffer (50 mM HEPES, pH 7.4, 150 mM NaCl, 1 mM CHAPS) was added to 96-well Corning 3686 (black) low-volume plates. After 3 mins, reaction was quenched with 10 μL of 5% aqueous trifluoroacetic acid (TFA). Plates were centrifuged 30 sec at 1000 rpm, covered to protect from light and incubated for 10 min at room temperature. Plates were read at ex: 380 nm/em: 485 nm using Envision plate reader (Perkin Elmer). […]

As to `COc1ccc2c(c1)CCn1c-2cc(Oc2ccc(Oc3cccc(C(F)(F)F)c3)c(C#N)c2)nc1=O` [5-((9-Methoxy-4-oxo-6,7-dihydro-4H-pyrimido[6,1-a]isoquinolin-2-yl)oxy)-2-(3-(trifluoromethyl)phenoxy)benzonitrile], in the experiment on rat EAE model (rat EAE plasma), the “plasma Lp-PLA2 activity” value was “decreased” and the “plasma LysoPC levels” value is “decreased”. Besides, the “clinical disease (EAE symptoms)” value in the experiment with rat EAE model (rats immunized with MBP, compound administered day 0 until day 22) is listed as “reduction in clinical disease”. Also, in experiment [1], the “anti-inflammatory (M2) markers expression” value is “increase in M2 markers” and the “proinflammatory (M1) markers expression” value is listed as “decrease in M1 markers”.

For the molecule `C[C@H]1Cn2c(cc(OCc3cc(F)c(Oc4ccnc(C(F)(F)F)c4)c(F)c3)nc2=O)N1` [E131, (S)-7-((3,5-difluoro-4-((2-(trifluoromethyl)pyridin-4-yl)oxy)benzyl)oxy)-2-methyl-2,3-dihydroimidazo[1,2-c]pyrimidin-5(1H)-one], the IC50 in experiment [2] was 0.251 nM.

On to `C[C@H]1Cn2c(cc(OCc3cccc(F)c3F)nc2=O)N1C` [E111, (S)-7-((2,3-difluorobenzyl)oxy)-1,2-dimethyl-2,3-dihydroimidazo[1,2-c]pyrimidin-5(1H)-one], for which the IC50 on Lp-PLA2 in human plasma [3] is greater than 10000 nM.

As for `C[C@@H]1Cn2c(cc(OCc3cc(F)c(Oc4ccnc(C(F)(F)F)c4)c(F)c3)nc2=O)N1` [E138, (R)-7-((3,5-difluoro-4-((2-(trifluoromethyl)pyridin-4-yl)oxy)benzyl)oxy)-2-methyl-2,3-dihydroimidazo[1,2-c]pyrimidin-5(1H)-one], the IC50 was 0.794 nM in experiment [4] and no more than 100 nM at Lp-PLA2 in human plasma [5].

In the case of `CC1(C)Cn2c(cc(OCc3ccc(F)c(F)c3)nc2=O)N1` [E120, 7-((3,4-difluorobenzyl)oxy)-2,2-dimethyl-2,3-dihydroimidazo[1,2-c]pyrimidin-5(1H)-one], the IC50 at Lp-PLA2 in human plasma [3] is greater than 10000 nM.
